Measurements: BindingDB's records for doi:10.1021/jm950640q (Sankyo, 1997)

Experiment: Inhibiting Platelet activating factor receptor by radioreceptor binding assay using rabbit platelets and [3H]-PAF

| Compound | IC50 [nM] |
| --- | --- |
| C/C1=C\CC[C@@]2(C)O[C@@H]2C(=O)[C@@H]2CC[C@@H](C)[C@](C)(CC1)[C@H]2C=O [(E)-(1R,3S,5R,12S,13R,16S)-5,9,12,13-Tetramethyl-2-oxo-4-oxa-tricyclo[10.3.1.0*3,5*]hexadec-8-ene-16-carbaldehyde] | 120 |
| C/C1=C\CC[C@@]2(C)O[C@@H]2C(=O)[C@@H]2CC[C@@H](C)[C@](C)(CC1)[C@H]2COc1ccon1 [(E)-(1R,3S,5R,12S,13R,16S)-16-(Isoxazol-3-yloxymethyl)-5,9,12,13-tetramethyl-4-oxa-tricyclo[10.3.1.0*3,5*]hexadec-8-en-2-one] | 50 |
| C/C1=C\CC[C@@]2(C)O[C@@H]2C(=O)[C@@H]2CC[C@@H](C)[C@](C)(CC1)[C@H]2CO [(E)-(1R,3S,5R,12S,13R,16S)-16-Hydroxymethyl-5,9,12,13-tetramethyl-4-oxa-tricyclo[10.3.1.0*3,5*]hexadec-8-en-2-one] | 1300 |
| CC(=O)OC[C@H]1[C@H]2CC[C@@H](C)[C@]1(C)CC/C(C)=C/CC[C@@]1(C)O[C@@H]1[C@@H]2O [Acetic acid (E)-(1R,2R,3R,5R,12S,13R,16S)-2-hydroxy-5,9,12,13-tetramethyl-4-oxa-tricyclo[10.3.1.0*3,5*]hexadec-8-en-16-ylmethyl ester] | 80 |
| CC(=O)OC[C@H]1[C@H]2CC[C@@H](C)[C@]1(C)CC/C(C)=C/CC[C@@]1(C)O[C@@H]1C2=O [Acetic acid (E)-(1R,3S,5R,12S,13R,16S)-5,9,12,13-tetramethyl-2-oxo-4-oxa-tricyclo[10.3.1.0*3,5*]hexadec-8-en-16-ylmethyl ester] | 410 |
| COC(=O)OC[C@H]1[C@H]2CC[C@@H](C)[C@]1(C)CC/C(C)=C/CC[C@@]1(C)O[C@@H]1[C@@H]2O [Carbonic acid (E)-(1R,2R,3R,5R,12S,13R,16S)-2-hydroxy-5,9,12,13-tetramethyl-4-oxa-tricyclo[10.3.1.0*3,5*]hexadec-8-en-16-ylmethyl ester methyl ester] | 130 |
| COC(=O)OC[C@H]1[C@H]2CC[C@@H](C)[C@]1(C)CC/C(C)=C/CC[C@@]1(C)O[C@@H]1C2=O [Carbonic acid methyl ester (E)-(1R,3S,5R,12S,13R,16S)-5,9,12,13-tetramethyl-2-oxo-4-oxa-tricyclo[10.3.1.0*3,5*]hexadec-8-en-16-ylmethyl ester] | 26 |
| C/C1=C\CC[C@@]2(C)O[C@@H]2C(=O)[C@@H]2CC[C@@H](C)[C@](C)(CC1)[C@H]2COC(=O)Oc1ccccc1 [Carbonic acid phenyl ester (E)-(1R,3S,5R,12S,13R,16S)-5,9,12,13-tetramethyl-2-oxo-4-oxa-tricyclo[10.3.1.0*3,5*]hexadec-8-en-16-ylmethyl ester] | 550 |
| C/C1=C\CC[C@@]2(C)O[C@@H]2[C@H](O)[C@@H]2CC[C@@H](C)[C@](C)(CC1)[C@H]2COC(=O)N(C)C [Dimethyl-carbamic acid (E)-(1R,2R,3R,5R,12S,13R,16S)-2-hydroxy-5,9,12,13-tetramethyl-4-oxa-tricyclo[10.3.1.0*3,5*]hexadec-8-en-16-ylmethyl ester] | 180 |
| C/C1=C\CC[C@@]2(C)O[C@@H]2C(=O)[C@@H]2CC[C@@H](C)[C@](C)(CC1)[C@H]2COC(=O)N(C)C [Dimethyl-carbamic acid (E)-(1R,3S,5R,12S,13R,16S)-5,9,12,13-tetramethyl-2-oxo-4-oxa-tricyclo[10.3.1.0*3,5*]hexadec-8-en-16-ylmethyl ester] | 180 |
| CCC(=O)OC[C@H]1[C@H]2CC[C@@H](C)[C@]1(C)CC/C(C)=C/CC[C@@]1(C)O[C@@H]1[C@@H]2O [Propionic acid (E)-(1R,2R,3R,5R,12S,13R,16S)-2-hydroxy-5,9,12,13-tetramethyl-4-oxa-tricyclo[10.3.1.0*3,5*]hexadec-8-en-16-ylmethyl ester] | 340 |
